Values of other authors as cited in paper PMC7938295 (Biomedical Reports, 2021).

Biological target: DPP4 (Homo sapiens, UniProt P27487)
Conditions: read-out: DPP4 Ki

DPP4, sequence (P27487 whole entry): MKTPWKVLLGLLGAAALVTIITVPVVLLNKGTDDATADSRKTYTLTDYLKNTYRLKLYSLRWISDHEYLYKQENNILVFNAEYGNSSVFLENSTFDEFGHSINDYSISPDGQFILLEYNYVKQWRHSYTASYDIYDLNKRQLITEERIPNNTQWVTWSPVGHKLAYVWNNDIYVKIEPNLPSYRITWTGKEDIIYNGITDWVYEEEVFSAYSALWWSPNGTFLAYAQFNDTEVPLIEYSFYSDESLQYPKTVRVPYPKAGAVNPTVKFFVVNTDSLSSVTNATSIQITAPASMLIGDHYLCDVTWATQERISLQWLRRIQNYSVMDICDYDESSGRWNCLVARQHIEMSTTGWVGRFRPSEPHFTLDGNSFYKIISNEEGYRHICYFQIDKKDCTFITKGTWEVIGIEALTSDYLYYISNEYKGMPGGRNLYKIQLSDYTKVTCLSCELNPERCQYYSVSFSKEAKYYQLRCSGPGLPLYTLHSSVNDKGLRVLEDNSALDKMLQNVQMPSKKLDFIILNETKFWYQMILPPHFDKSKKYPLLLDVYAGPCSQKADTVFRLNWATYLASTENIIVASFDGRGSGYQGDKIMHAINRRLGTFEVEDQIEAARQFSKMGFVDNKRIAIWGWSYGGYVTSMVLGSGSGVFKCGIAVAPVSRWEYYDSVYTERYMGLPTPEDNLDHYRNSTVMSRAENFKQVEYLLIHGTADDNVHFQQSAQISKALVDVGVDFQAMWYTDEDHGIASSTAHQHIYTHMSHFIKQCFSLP

O=c1cc(-c2ccccc2)oc2ccccc12 [flavone]
Ki: 18.6 µM
